From US11472791B2 (Incyte Corporation, priority 2019, dated 2022)

Each molecule was assayed against CDK2/Cyclin E1 (Homo sapiens (Human), UniProt P24941) (assay: CDK2/Cyclin E1 HTRF enzyme activity assay). Conditions: 1 mM ATP.
Assay type: biochemical
Method: Assays are conducted in white 384-well polystyrene plates in a final reaction volume of 8 μL. […] HTRF signals are read after 1 hour at room temperature on a PHERAstar FS plate reader (BMG Labtech). Data is analyzed with IDBS XLFit and GraphPad Prism 5.0 software using a three or four parameter dose response curve to determine IC50 for each compound.

Row | IC50 [nM] | Structure (SMILES)
1 | < 50 | COC(=O)N[C@@H]1CC[C@@H](NCc2ccc(-n3cc(-c4nc(NC5CCN(S(C)(=O)=O)CC5)ncc4C#N)cn3)c(Cl)c2)C1 [Example 279, Methyl ((1R,3R)-3-((3-chloro-4-(4-(5-cyano-2-((1-(methylsulfonyl)piperidin-4-yl)amino)pyrimidin-4-yl)-1H-pyrazol-1-yl)benzyl)amino)cyclopentyl)carbamate]
2 | < 50 | Cc1nc(CNC(C)(C)C)ccc1-n1cc(-c2nc(NC3CCN(S(C)(=O)=O)CC3)ncc2C#N)cn1 [Example 262, 4-(1-(6-((tert-Butylamino)methyl)-2-methylpyridin-3-yl)-1H-pyrazol-4-yl)-2-((1-(methylsulfonyl)piperidin-4-yl)amino)pyrimidine-5-carbonitrile]
3 | < 50 | COC1CCN(CCCS(=O)(=O)N2CC[C@H](Nc3ncc(C(F)(F)F)c(-c4cnn(CC(C)(C)O)c4)n3)[C@H](F)C2)CC1 [Example 207, 1-(4-(2-(((3R,4S)-3-Fluoro-1-((3-(4-methoxypiperidin-1-yl)propyl)sulfonyl)piperidin-4-yl)amino)-5-(trifluoromethyl)pyrimidin-4-yl)-1H-pyrazol-1-yl)-2-methylpropan-2-ol]
4 | < 50 | C[C@]1(O)CC[C@H](NCc2ccc(-n3cc(-c4nc(NC5CCN(S(=O)(=O)C6CC6)CC5)ncc4C#N)cn3)c(Cl)c2)CC1 [Example 284, 4-(1-(2-Chloro-4-((((1r,4r)-4-hydroxy-4-methylcyclohexyl)amino)methyl)phenyl)-1H-pyrazol-4-yl)-2-((1-(cyclopropylsulfonyl)piperidin-4-yl)amino)pyrimidine-5-carbonitrile]
5 | < 50 | CS(=O)(=O)N1CCC(Nc2ncc(C#N)c(-c3cnn(-c4ccc(CNCCN5CCS(=O)(=O)CC5)cc4Cl)c3)n2)CC1 [Example 290, 4-(1-(2-Chloro-4-(((2-(1,1-dioxidothiomorpholino)ethyl)amino)methyl)phenyl)-1H-pyrazol-4-yl)-2-((1-(methylsulfonyl)piperidin-4-yl)amino)pyrimidine-5-carbonitrile]
6 | < 50 | Cc1cc(CN2CCN(C)CC2)ccc1-n1cc(-c2nc(NC3CCN(S(=O)(=O)c4cn(C)cn4)CC3)ncc2C#N)cn1 [Example 243, 2-((1-((1-Methyl-1H-imidazol-4-yl)sulfonyl)piperidin-4-yl)amino)-4-(1-(2-methyl-4-((4-methylpiperazin-1-yl)methyl)phenyl)-1H-pyrazol-4-yl)pyrimidine-5-carbonitrile]
7 | < 50 | CO[C@@H]1CCN(CCCS(=O)(=O)N2CCC(Nc3ncc(C(F)(F)F)c(-c4cnn(CC(C)(C)O)c4)n3)CC2)C1 [Example 220, (R)-1-(4-(2-((1-((3-(3-Methoxypyrrolidin-1-yl)propyl)sulfonyl)piperidin-4-yl)amino)-5-(trifluoromethyl)pyrimidin-4-yl)-1H-pyrazol-1-yl)-2-methylpropan-2-ol]

The next lines start with the molecule.

Row | Structure (SMILES) | IC50 [nM]
8 | CS(=O)(=O)N1CCC(Nc2ncc(C#N)c(-c3cnn(-c4ccc(CN[C@H]5C[C@@H](C#N)C5)cc4Cl)c3)n2)CC1 [Example 164, 4-(1-(2-Chloro-4-((((1s,3s)-3-cyanocyclobutyl)amino)methyl)phenyl)-1H-pyrazol-4-yl)-2-((1-(methylsulfonyl)piperidin-4-yl)amino)pyrimidine-5-carbonitrile] | < 50
9 | CN1CCN(Cc2ccc(-n3cc(-c4nc(NC5CCN(S(=O)(=O)c6cn(C)cn6)CC5)ncc4Cl)cn3)c(Cl)c2)CC1 [Example 108, 5-Chloro-4-(1-(2-chloro-4-((4-methylpiperazin-1-yl)methyl)phenyl)-1H-pyrazol-4-yl)-N-(1-((1-methyl-1H-imidazol-4-yl)sulfonyl)piperidin-4-yl)pyrimidin-2-amine] | < 50
10 | C[C@@H]1CN(S(=O)(=O)c2cnn(C)c2)CC[C@@H]1Nc1ncc(C(F)(F)F)c(-c2cnn(CC(C)(C)O)c2)n1 [Example 60, 2-Methyl-1-(4-(2-(((3R,4S)-3-methyl-1-((1-methyl-1H-pyrazol-4-yl)sulfonyl)piperidin-4-yl)amino)-5-(trifluoromethyl)pyrimidin-4-yl)-1H-pyrazol-1-yl)propan-2-ol] | < 50
11 | CO[C@H]1C[C@@H](NCc2ccc(-n3cc(-c4nc(NC5CCN(S(C)(=O)=O)CC5)ncc4C#N)cn3)c(Cl)c2)C1 [Example 163, 4-(1-(2-Chloro-4-((((1s,3s)-3-methoxycyclobutyl)amino)methyl)phenyl)-1H-pyrazol-4-yl)-2-((1-(methylsulfonyl)piperidin-4-yl)amino)pyrimidine-5-carbonitrile] | < 50
12 | [2H]C([2H])([2H])NCc1ccc(-n2cc(-c3nc(NC4CCN(S(=O)(=O)c5ccn(C)n5)CC4)ncc3C(F)(F)F)cn2)c(C)c1 [Example 131, N-(1-((1-Methyl-1H-pyrazol-3-yl)sulfonyl)piperidin-4-yl)-4-(1-(2-methyl-4-(((methyl-d3)amino)methyl)phenyl)-1H-pyrazol-4-yl)-5-(trifluoromethyl)pyrimidin-2-amine] | < 50
13 | CNCc1ccc(-n2cc(-c3nc(N[C@H]4CCN(S(=O)(=O)CCCC#N)C[C@H]4F)ncc3C#N)cn2)c(Cl)c1 [Example 122, 4-(1-(2-Chloro-4-((methylamino)methyl)phenyl)-1H-pyrazol-4-yl)-2-(((3R,4S)-1-((3-cyanopropyl)sulfonyl)-3-fluoropiperidin-4-yl)amino)pyrimidine-5-carbonitrile] | < 50
14 | CS(=O)(=O)N1CCC(Nc2ncc(C#N)c(-c3cnn(-c4ccc(CN[C@@H]5CCC[C@H]5O)cc4Cl)c3)n2)CC1 [Example 186, 4-(1-(2-Chloro-4-((((1R,2R)-2-hydroxycyclopentyl)amino)methyl)phenyl)-1H-pyrazol-4-yl)-2-((1-(methylsulfonyl)piperidin-4-yl)amino)pyrimidine-5-carbonitrile] | < 50
15 | CN1CCC(n2ncc(-c3nc(NC4CCN(S(C)(=O)=O)CC4)ncc3C(F)(F)F)c2C(F)(F)F)CC1 [Example 18, 4-(1-(1-Methylpiperidin-4-yl)-5-(trifluoromethyl)-1H-pyrazol-4-yl)-N-(1-(methylsulfonyl)piperidin-4-yl)-5-(trifluoromethyl)pyrimidin-2-amine] | 50 to 200
16 | CC(=O)N1CCN(Cc2ccc(-n3cc(-c4nc(NC5CCN(S(=O)(=O)c6cn(C)cn6)CC5)ncc4C(F)(F)F)cn3)c(C)c2)CC1 [Example 105, 1-(4-(3-Methyl-4-(4-(2-((1-((1-methyl-1H-imidazol-4-yl)sulfonyl)piperidin-4-yl)amino)-5-(trifluoromethyl)pyrimidin-4-yl)-1H-pyrazol-1-yl)benzyl)piperazin-1-yl)ethan-1-one] | < 50
17 | Cn1cnc(S(=O)(=O)N2CCC(Nc3ncc(C(F)(F)F)c(-c4cnn(CC(F)F)c4)n3)CC2)c1 [Example 31, 4-(1-(2,2-Difluoroethyl)-1H-pyrazol-4-yl)-N-(1-((1-methyl-1H-imidazol-4-yl)sulfonyl)piperidin-4-yl)-5-(trifluoromethyl)pyrimidin-2-amine] | < 50
18 | [2H]C([2H])([2H])NCc1ccc(-n2cc(-c3nc(N[C@H]4CCN(S(C)(=O)=O)C[C@H]4F)ncc3C(F)(F)F)cn2)c(C)c1 [Example 132, N-((3R,4S)-3-Fluoro-1-(methylsulfonyl)piperidin-4-yl)-4-(1-(2-methyl-4-(((methyl-d3)amino)methyl)phenyl)-1H-pyrazol-4-yl)-5-(trifluoromethyl)pyrimidin-2-amine] | < 50
